This is an account of results in publication PMC3182149 (Phytochemistry letters, 2011).

Assay [1] deals with panel of three human cancer cells. As to the kind of experiment: Cytotoxicity assay, panel of three human cancer cells. It is filed as cell-based. Conditions: range over the panel of three human cancer cells.
Assay [2] relates to LNCaP hormone-dependent prostate cancer cells. As to the kind of experiment: Cytotoxicity assay, LNCaP hormone-dependent prostate cancer cells. It is filed as cell-based, human.
Assay [3] has as its system MCF-7 human breast cancer cells. Put plainly: Cytotoxicity assay, MCF-7 human breast cancer cell line. It is filed as cell-based.
The subject of assay [4] is Lu1 human lung cancer cells. As to the kind of experiment: Cytotoxicity assay, Lu1 human lung cancer cells. It is filed as cell-based.
Assay [5] deals with NF-κB p65 (Homo sapiens, UniProt Q04206). As to the kind of experiment: Enzyme-based ELISA NF-κB p65 assay. The following applies: inhibition of binding of NF-κB to DNA; Hela nuclear extract. It is filed as biochemical. (In general: In an ELISA, binding on a coated surface is turned into a signal by an enzyme label.)
Chain of NF-κB p65 (Q04206 whole entry): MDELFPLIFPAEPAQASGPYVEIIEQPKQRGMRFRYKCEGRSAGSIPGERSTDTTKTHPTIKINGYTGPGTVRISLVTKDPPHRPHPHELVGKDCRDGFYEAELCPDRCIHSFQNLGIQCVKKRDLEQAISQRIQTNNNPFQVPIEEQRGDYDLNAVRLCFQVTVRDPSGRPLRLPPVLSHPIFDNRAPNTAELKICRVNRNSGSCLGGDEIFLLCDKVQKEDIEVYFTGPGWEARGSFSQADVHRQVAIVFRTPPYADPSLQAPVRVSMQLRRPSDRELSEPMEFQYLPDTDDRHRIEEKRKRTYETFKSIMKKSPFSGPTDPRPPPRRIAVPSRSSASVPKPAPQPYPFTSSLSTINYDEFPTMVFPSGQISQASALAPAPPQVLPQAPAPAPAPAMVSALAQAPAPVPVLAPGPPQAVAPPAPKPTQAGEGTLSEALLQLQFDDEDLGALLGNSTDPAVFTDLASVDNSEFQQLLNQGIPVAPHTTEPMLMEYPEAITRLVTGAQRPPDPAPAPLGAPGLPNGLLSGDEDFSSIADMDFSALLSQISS
Chain of NF-κB p65 (P19838 1-433 partner limits assumed): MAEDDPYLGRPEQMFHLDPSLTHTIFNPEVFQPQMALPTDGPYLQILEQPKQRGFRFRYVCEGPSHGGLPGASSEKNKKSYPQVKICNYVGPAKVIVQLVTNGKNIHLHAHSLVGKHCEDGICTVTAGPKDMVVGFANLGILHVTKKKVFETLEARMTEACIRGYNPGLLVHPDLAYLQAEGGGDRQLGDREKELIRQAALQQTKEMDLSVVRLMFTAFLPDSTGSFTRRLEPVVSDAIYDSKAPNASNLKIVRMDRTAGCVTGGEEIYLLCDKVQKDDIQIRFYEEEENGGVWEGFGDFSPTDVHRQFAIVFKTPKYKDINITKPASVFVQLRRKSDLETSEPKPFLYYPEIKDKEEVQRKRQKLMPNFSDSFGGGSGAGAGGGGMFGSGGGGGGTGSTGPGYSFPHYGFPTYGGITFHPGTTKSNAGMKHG

With `COc1ccc([C@@H]2CC(=O)c3c(O)cc(OC)cc3O2)cc1` [Compound 3, (S)-5-hydroxy-7,4′-dimethoxyflavanone], the ED50 values in assay [1] was 1.1 to 6.7 µM. Moreover, the ED50 in assay [2] was found to be 6.7 µM; in assay [3], 1.1 µM; in assay [4], 4.7 µM.

Consider “methyl 3,4,5-O-tricaffeoyl quinate [Compound 4]”, for which the ED50 in assay [5] amounted to 10.3 µM.
